≈ marks a conversion by molar mass, not a printed value.

By kinetic solubility is commonly meant solubility judged after dilution from a stock solution rather than from solid.

For the data set the following is noted: buffer; pH 7.4; 200.0 µM.
Consider `O=C(NCc1ccco1)/C(=C\C=C\c1ccccc1)NC(=O)c1ccco1`, for which the solubility (kinetic) was more than 54.4 µg/mL.

`CCOc1ccc(NC(=S)N2CCC(NC(=O)c3ccccc3)CC2)cc1` gave a solubility (kinetic) of 4.2 µg/mL (≈ 11 µM).

`O=C(CSc1nccc(=O)[nH]1)N1CCOCC1` yielded a solubility (kinetic) of more than 38.3 µg/mL.

Turning to `O=Cc1c(NCCc2ccc(F)cc2)c2ccccc2[nH]c1=O`, the kinetic solubility stood at 34.8 µg/mL (≈ 112 µM).

For `C(#Cc1ccccc1)CN1CCOCC1.Cl`, the solubility (kinetic) was more than 35.7 µg/mL.

With `O=C(Nc1ccccc1)Nc1nc(-c2ccc(F)c(F)c2)cs1`, the solubility (kinetic) is less than 0.2 µg/mL.

`Cc1ccc(-c2ocnc2C(=O)N2CCOCC2)cc1` showed a kinetic solubility of more than 40.8 µg/mL.

Turning to `COc1ccc(C(=O)COC(=O)c2cc(C)no2)c(OC)c1`, the solubility (kinetic) is more than 45.8 µg/mL.

Compound `Cc1[nH]c(=O)c(C#N)c(C)c1CSc1ncccn1` showed a solubility (kinetic) of more than 40.8 µg/mL.

In turn, `COC(=O)CC1C(=O)NCCN1C(=O)c1cc([N+](=O)[O-])ccc1Cl` (configuration not stated) yielded a kinetic solubility of 52.9 µg/mL (≈ 149 µM).

`O/N=C/c1nc2cc(Cl)ccc2o1` came in with a solubility (kinetic) of more than 29.5 µg/mL.

In turn, `CCC(C)c1ccc(S(=O)(=O)Nc2cccnc2)cc1.Cl` (configuration not stated) registered a kinetic solubility of 35.9 µg/mL.

Consider `CCOC(=O)CC1C(=O)NCCN1Cc1ccc(OC)c(OC)c1` (configuration not stated), for which the kinetic solubility was more than 50.5 µg/mL.

`CCCCc1ccccc1NC(=S)NC1CCCC1`: the solubility (kinetic) turned out to be 30.5 µg/mL (≈ 110 µM).

Turning to `CC1CC(C)CN(C(=O)COC(=O)COc2ccc(C#N)cc2)C1` (configuration not stated), the kinetic solubility was 43.5 µg/mL (≈ 132 µM).

Regarding `COc1cccc2cc(C(=O)NCc3ccc(F)cc3)c(=N)oc12`, the kinetic solubility is 1.7 µg/mL (≈ 5.21 µM).

The compound `O=C(Nc1cccc(NC(=O)c2cccnc2)c1)c1ccccc1` came in with a kinetic solubility of 21.9 µg/mL (≈ 69 µM).

In the case of `N#Cc1ccccc1NC(=O)COC(=O)c1c[nH]c2ccccc12`, the solubility (kinetic) was 4.4 µg/mL (≈ 13.8 µM).

Compound `O=C1CSC(c2cccnc2)N1CCc1ccccn1` (configuration not stated) had a solubility (kinetic) of more than 42.8 µg/mL.

With `C[C@H](NC(=O)C(c1ccccc1)c1ccccc1)c1ccccc1`, the kinetic solubility turned out to be 8.5 µg/mL (≈ 26.9 µM).

The compound `Cc1ccc(CSCc2ccc(C(=O)NCCC(C)C)o2)cc1` returned a solubility (kinetic) of 2.2 µg/mL (≈ 6.64 µM).

`CN(C)c1ccc(P(=O)(OC2CCCCC2)C(O)c2ccncc2)cc1` (configuration not stated) showed a kinetic solubility of 52.8 µg/mL (≈ 141 µM).

The compound `Br.CCn1c2c(c(=N)c3ccccc31)CCC2` had a solubility (kinetic) of more than 44 µg/mL.

With `CCOC(=O)C1=C(C)N(C)C(=O)NC1c1c(O)ccc2ccccc12` (configuration not stated), the solubility (kinetic) was more than 51.1 µg/mL.

Consider `CN(C)/C=C/C(=O)c1ccc(OCCN(C)c2ccccn2)cc1`, for which the kinetic solubility was more than 48.8 µg/mL.

As for `Cc1nc(C)c(-c2csc(Nc3ccc(S(N)(=O)=O)cc3)n2)s1`, the solubility (kinetic) was 0.3 µg/mL (≈ 0.819 µM).

On to `Nc1c(C(=O)OCC(=O)Nc2ccccc2Br)[nH]c(=O)[nH]c1=O`, for which the kinetic solubility turned out to be 25.6 µg/mL (≈ 66.8 µM).

In turn, `O=C(c1cccc(S(=O)(=O)NCc2ccccc2)c1)N1CCN(c2ccccc2)CC1` had a kinetic solubility of 2.4 µg/mL (≈ 5.51 µM).

For `N#C/C(=C\c1ccc(O)c(Br)c1)C(=O)N1CCCCC1`, the solubility (kinetic) is more than 50.3 µg/mL.

In the case of `COC(=O)c1ccc(CO/N=C/c2cccc([N+](=O)[O-])c2)cc1`, the kinetic solubility was less than 0.3 µg/mL.

On to `Cc1cccc(C)c1NC(=O)CSC(=S)N1CCCC1`, for which the kinetic solubility is 9.6 µg/mL (≈ 31.1 µM).

`CC(CCc1ccccc1)NC(=O)c1ccc(Br)cc1` (configuration not stated) displayed a solubility (kinetic) of 1.1 µg/mL (≈ 3.31 µM).

`COc1cccc(C(=O)c2cc3cc(Cl)ccc3[nH]2)c1`: the kinetic solubility is less than 0.6 µg/mL.

As to `CCN(CC(=O)NCc1ccc(F)cc1)CC(=O)Nc1ccc(Br)cc1F`, the solubility (kinetic) is 58.9 µg/mL (≈ 134 µM).

`Nc1nc2ccccc2n1CCOc1ccc(Br)cc1` yielded a solubility (kinetic) of 27.2 µg/mL (≈ 81.9 µM).

Consider `Cl.NS(=O)(=O)c1ccc(CCNCC#Cc2ccccc2)cc1`, for which the kinetic solubility was more than 52.6 µg/mL.

On to `N#CCCN(C(=O)CN1CCN(S(=O)(=O)c2ccc(Cl)s2)CC1)c1ccc(F)cc1`, for which the kinetic solubility is more than 70.6 µg/mL.

In turn, `COC(=O)c1ccc(C(=O)OC)c(NC(=S)N2CCCC2)c1` registered a kinetic solubility of 9.6 µg/mL (≈ 29.8 µM).

`CC(C)(C)OC(=O)C(C)(C)O/N=C(\C(=O)O)c1csc(N)n1` displayed a solubility (kinetic) of more than 49.4 µg/mL.

In turn, `COc1cc(CC(=O)N2CCN(C(=O)C3CCCO3)CC2)cc(OC)c1OC` (configuration not stated) came in with a kinetic solubility of more than 58.9 µg/mL.

For `O=[N+]([O-])c1cccnc1Oc1ccc(C2SCCS2)cc1`, the kinetic solubility was less than 0.3 µg/mL.

Turning to `O=S(=O)([N-]c1nc2ccccc2nc1-[n+]1ccccc1)c1ccc(F)cc1`, the solubility (kinetic) was determined as 50.3 µg/mL (≈ 132 µM).

For the compound `CCCn1c(SCC(=O)NCCCN2CCCC2=O)nc2ccccc2c1=O`, the kinetic solubility is more than 60.4 µg/mL.

On to `O=C1CSC(=S)N1c1cccc(F)c1`, for which the solubility (kinetic) turned out to be 1 µg/mL (≈ 4.4 µM).

As for `CCOC(=O)c1nc2ccccc2c(=O)[nH]1`, the solubility (kinetic) was more than 32.7 µg/mL.

As to `Cc1ccsc1/C=N/NC(=O)CNC(=O)c1ccco1`, the solubility (kinetic) is more than 43.7 µg/mL.

As to `CN(C)c1cc[n+](CC(=O)Nc2ccc(OC(F)F)cc2)cc1.[Cl-]`, the solubility (kinetic) was more than 53.7 µg/mL.

Compound `N#CC(C(=O)c1ccccc1Cl)=C1SCCCS1` registered a kinetic solubility of 9.4 µg/mL (≈ 31.8 µM).

`O=C(Cc1ccc(Cl)cc1)Nc1cccc2ncccc12` registered a solubility (kinetic) of 3.9 µg/mL (≈ 13.1 µM).

`Cc1ccc(S(=O)(=O)NCc2ccccc2C)cc1` had a kinetic solubility of 20.4 µg/mL (≈ 74.1 µM).

As for `Cc1nc(C)c(C(=O)O)s1`, the kinetic solubility is more than 23.6 µg/mL.

In the case of `CCOC(=O)N1CCC(NC(=O)c2cccs2)CC1`, the solubility (kinetic) came to 37.8 µg/mL (≈ 134 µM).

These data come from PubChem BioAssay AID1996.
